Experimental data taken from ChEMBL document CHEMBL2396590, “Inhibition of HIV-1 integrase dimerization and activity with crosslinked interfacial peptides” (Bioorg Med Chem, 2013).
The source made the active and inactive calls. No cut-off for these calls is given here. Starred links: 1 amine or outer side, 2 acyl side, 3 side chain; linkers in the order of their positions; H or OH if unused. Non-standard residues stand in square brackets, D forms with d. Residues, ends and D or L forms follow the SMILES beside them. NH(CH2)9CO = O=C(CCCCCCCCCN[*:1])[*:2]; NH(CH2)8CO = O=C(CCCCCCCCN[*:1])[*:2]; X1 = O=C(CN1CCN([*:1])CC1)[*:2]; 12Ado = NCCCCCCCCCCCC(=O)O; Aun = NCCCCCCCCCCC(=O)O; AEEA = NCCOCCOCC(=O)O; Aoc = NCCCCCCCC(=O)O; Ahp = NCCCCCCC(=O)O; Ava = NCCCCC(=O)O

Experiments:
[1] = system: Human immunodeficiency virus type 1 integrase (Human immunodeficiency virus 1), Q7ZJM1 [F185K,C280S]; assay: Inhibition of HIV1 integrase F185K/C280S double mutant dimerization expressed in Escherichia coli BL21 (DE3) at 110 uM after 1 hr by PAGE analysis
[2] = target: Human immunodeficiency virus type 1 integrase (Human immunodeficiency virus 1, UniProt Q7ZJM1, C280S/F185K); assay: Inhibition of HIV1 3'-processing activity of integrase F185K/C280S double mutant expressed in Escherichia coli BL21 (DE3)

CC[C@H](C)[C@H](NC(=O)[C@H](CC(=O)O)NC(=O)[C@@H](NC(=O)[C@H](C)NC(=O)[C@@H](NC(=O)[C@@H](NC(=O)[C@H](CC(=O)O)NC(=O)[C@@H](NC(=O)[C@@H](NC(=O)[C@H](CCCNC(=N)N)NC(=O)[C@H](CCC(=O)O)NC(=O)CNC(=O)[C@H](C)NC(=O)CCCCCCCCCCCNC(=O)[C@H](CCCNC(=N)N)NC(=O)[C@H](CCCCN)NC(=O)[C@H](Cc1ccccc1)NC(=O)[C@H](CC(N)=O)NC(=O)[C@H](Cc1cnc[nH]1)NC(=O)[C@@H](NC(=O)[C@H](Cc1ccccc1)NC(=O)[C@@H](NC(=O)[C@H](C)NC(=O)[C@H](CCSC)NC(=O)[C@H](CCC(N)=O)NC(=O)[C@@H](NC(=O)[C@H](C)NC(=O)[C@@H](NC(=O)[C@H](CCCCN)NC(=O)[C@H](CC(C)C)NC(=O)[C@@H](N)Cc1cnc[nH]1)[C@@H](C)O)C(C)C)C(C)C)[C@@H](C)CC)[C@@H](C)CC)C(C)C)[C@@H](C)CC)[C@@H](C)CC)[C@@H](C)O)C(=O)N[C@@H](CCC(N)=O)C(N)=O (H-HLKTAVQMAVFIHNFKR[12Ado]AGERIVDIIATDIQ-NH2)
inhibition [1]: Active | IC50 [2]: 1300 nM

CC[C@H](C)[C@H](NC(=O)[C@H](CC(=O)O)NC(=O)[C@@H](NC(=O)[C@H](C)NC(=O)[C@@H](NC(=O)[C@@H](NC(=O)[C@H](CC(=O)O)NC(=O)[C@@H](NC(=O)[C@@H](NC(=O)[C@H](CCCNC(=N)N)NC(=O)[C@H](CCC(=O)O)NC(=O)CNC(=O)[C@H](C)NC(=O)COCCOCCNC(=O)[C@H](CCCNC(=N)N)NC(=O)[C@H](CCCCN)NC(=O)[C@H](Cc1ccccc1)NC(=O)[C@H](CC(N)=O)NC(=O)[C@H](Cc1cnc[nH]1)NC(=O)[C@@H](NC(=O)[C@H](Cc1ccccc1)NC(=O)[C@@H](NC(=O)[C@H](C)NC(=O)[C@H](CCSC)NC(=O)[C@H](CCC(N)=O)NC(=O)[C@@H](NC(=O)[C@H](C)NC(=O)[C@@H](NC(=O)[C@H](CCCCN)NC(=O)[C@H](CC(C)C)NC(=O)[C@@H](N)Cc1cnc[nH]1)[C@@H](C)O)C(C)C)C(C)C)[C@@H](C)CC)[C@@H](C)CC)C(C)C)[C@@H](C)CC)[C@@H](C)CC)[C@@H](C)O)C(=O)N[C@@H](CCC(N)=O)C(N)=O (H-HLKTAVQMAVFIHNFKR[AEEA]AGERIVDIIATDIQ-NH2)
inhibition [1]: Active | IC50 [2]: 1070 nM

CC[C@H](C)[C@H](NC(=O)[C@H](CC(=O)O)NC(=O)[C@@H](NC(=O)[C@H](C)NC(=O)[C@@H](NC(=O)[C@@H](NC(=O)[C@H](CC(=O)O)NC(=O)[C@@H](NC(=O)[C@@H](NC(=O)[C@H](CCCNC(=N)N)NC(=O)[C@H](CCC(=O)O)NC(=O)CNC(=O)[C@H](C)NC(=O)CCCCCCNC(=O)[C@H](CCCNC(=N)N)NC(=O)[C@H](CCCCN)NC(=O)[C@H](Cc1ccccc1)NC(=O)[C@H](CC(N)=O)NC(=O)[C@H](Cc1cnc[nH]1)NC(=O)[C@@H](NC(=O)[C@H](Cc1ccccc1)NC(=O)[C@@H](NC(=O)[C@H](C)NC(=O)[C@H](CCSC)NC(=O)[C@H](CCC(N)=O)NC(=O)[C@@H](NC(=O)[C@H](C)NC(=O)[C@@H](NC(=O)[C@H](CCCCN)NC(=O)[C@H](CC(C)C)NC(=O)[C@@H](N)Cc1cnc[nH]1)[C@@H](C)O)C(C)C)C(C)C)[C@@H](C)CC)[C@@H](C)CC)C(C)C)[C@@H](C)CC)[C@@H](C)CC)[C@@H](C)O)C(=O)N[C@@H](CCC(N)=O)C(N)=O (H-HLKTAVQMAVFIHNFKR[Ahp]AGERIVDIIATDIQ-NH2)
inhibition [1]: Active | IC50 [2]: 910 nM

CC[C@H](C)[C@H](NC(=O)[C@H](CC(=O)O)NC(=O)[C@@H](NC(=O)[C@H](C)NC(=O)[C@@H](NC(=O)[C@@H](NC(=O)[C@H](CC(=O)O)NC(=O)[C@@H](NC(=O)[C@@H](NC(=O)[C@H](CCCNC(=N)N)NC(=O)[C@H](CCC(=O)O)NC(=O)CNC(=O)[C@H](C)NC(=O)CCCCCCCNC(=O)[C@H](CCCNC(=N)N)NC(=O)[C@H](CCCCN)NC(=O)[C@H](Cc1ccccc1)NC(=O)[C@H](CC(N)=O)NC(=O)[C@H](Cc1cnc[nH]1)NC(=O)[C@@H](NC(=O)[C@H](Cc1ccccc1)NC(=O)[C@@H](NC(=O)[C@H](C)NC(=O)[C@H](CCSC)NC(=O)[C@H](CCC(N)=O)NC(=O)[C@@H](NC(=O)[C@H](C)NC(=O)[C@@H](NC(=O)[C@H](CCCCN)NC(=O)[C@H](CC(C)C)NC(=O)[C@@H](N)Cc1cnc[nH]1)[C@@H](C)O)C(C)C)C(C)C)[C@@H](C)CC)[C@@H](C)CC)C(C)C)[C@@H](C)CC)[C@@H](C)CC)[C@@H](C)O)C(=O)N[C@@H](CCC(N)=O)C(N)=O (H-HLKTAVQMAVFIHNFKR[Aoc]AGERIVDIIATDIQ-NH2)
inhibition [1]: Active | IC50 [2]: 680 nM

CC[C@H](C)[C@H](NC(=O)[C@H](CC(=O)O)NC(=O)[C@@H](NC(=O)[C@H](C)NC(=O)[C@@H](NC(=O)[C@@H](NC(=O)[C@H](CC(=O)O)NC(=O)[C@@H](NC(=O)[C@@H](NC(=O)[C@H](CCCNC(=N)N)NC(=O)[C@H](CCC(=O)O)NC(=O)CNC(=O)[C@H](C)NC(=O)CCCCCCCCCCNC(=O)[C@H](CCCNC(=N)N)NC(=O)[C@H](CCCCN)NC(=O)[C@H](Cc1ccccc1)NC(=O)[C@H](CC(N)=O)NC(=O)[C@H](Cc1cnc[nH]1)NC(=O)[C@@H](NC(=O)[C@H](Cc1ccccc1)NC(=O)[C@@H](NC(=O)[C@H](C)NC(=O)[C@H](CCSC)NC(=O)[C@H](CCC(N)=O)NC(=O)[C@@H](NC(=O)[C@H](C)NC(=O)[C@@H](NC(=O)[C@H](CCCCN)NC(=O)[C@H](CC(C)C)NC(=O)[C@@H](N)Cc1cnc[nH]1)[C@@H](C)O)C(C)C)C(C)C)[C@@H](C)CC)[C@@H](C)CC)C(C)C)[C@@H](C)CC)[C@@H](C)CC)[C@@H](C)O)C(=O)N[C@@H](CCC(N)=O)C(N)=O (H-HLKTAVQMAVFIHNFKR[Aun]AGERIVDIIATDIQ-NH2)
inhibition [1]: Active | IC50 [2]: 850 nM

CC[C@H](C)[C@H](NC(=O)[C@H](CC(=O)O)NC(=O)[C@@H](NC(=O)[C@H](C)NC(=O)[C@@H](NC(=O)[C@@H](NC(=O)[C@H](CC(=O)O)NC(=O)[C@@H](NC(=O)[C@@H](NC(=O)[C@H](CCCNC(=N)N)NC(=O)[C@H](CCC(=O)O)NC(=O)CNC(=O)[C@H](C)NC(=O)CCCCNC(=O)[C@H](CCCNC(=N)N)NC(=O)[C@H](CCCCN)NC(=O)[C@H](Cc1ccccc1)NC(=O)[C@H](CC(N)=O)NC(=O)[C@H](Cc1cnc[nH]1)NC(=O)[C@@H](NC(=O)[C@H](Cc1ccccc1)NC(=O)[C@@H](NC(=O)[C@H](C)NC(=O)[C@H](CCSC)NC(=O)[C@H](CCC(N)=O)NC(=O)[C@@H](NC(=O)[C@H](C)NC(=O)[C@@H](NC(=O)[C@H](CCCCN)NC(=O)[C@H](CC(C)C)NC(=O)[C@@H](N)Cc1cnc[nH]1)[C@@H](C)O)C(C)C)C(C)C)[C@@H](C)CC)[C@@H](C)CC)C(C)C)[C@@H](C)CC)[C@@H](C)CC)[C@@H](C)O)C(=O)N[C@@H](CCC(N)=O)C(N)=O (H-HLKTAVQMAVFIHNFKR[Ava]AGERIVDIIATDIQ-NH2)
IC50 [2]: 3750 nM

CC[C@H](C)[C@H](NC(=O)[C@H](CC(=O)O)NC(=O)[C@@H](NC(=O)[C@H](C)NC(=O)[C@@H](NC(=O)[C@@H](NC(=O)[C@H](CC(=O)O)NC(=O)[C@@H](NC(=O)[C@@H](NC(=O)[C@H](CCCNC(=N)N)NC(=O)[C@H](CCC(=O)O)NC(=O)CNC(=O)[C@H](C)NC(=O)CCCCCCCCNC(=O)[C@H](CCCNC(=N)N)NC(=O)[C@H](CCCCN)NC(=O)[C@H](Cc1ccccc1)NC(=O)[C@H](CC(N)=O)NC(=O)[C@H](Cc1cnc[nH]1)NC(=O)[C@@H](NC(=O)[C@H](Cc1ccccc1)NC(=O)[C@@H](NC(=O)[C@H](C)NC(=O)[C@H](CCSC)NC(=O)[C@H](CCC(N)=O)NC(=O)[C@@H](NC(=O)[C@H](C)NC(=O)[C@@H](NC(=O)[C@H](CCCCN)NC(=O)[C@H](CC(C)C)NC(=O)[C@@H](N)Cc1cnc[nH]1)[C@@H](C)O)C(C)C)C(C)C)[C@@H](C)CC)[C@@H](C)CC)C(C)C)[C@@H](C)CC)[C@@H](C)CC)[C@@H](C)O)C(=O)N[C@@H](CCC(N)=O)C(N)=O (H-HLKTAVQMAVFIHNFKR[NH(CH2)8CO]AGERIVDIIATDIQ-NH2)
inhibition [1]: Active | IC50 [2]: 720 nM

CC[C@H](C)[C@H](NC(=O)[C@H](CC(=O)O)NC(=O)[C@@H](NC(=O)[C@H](C)NC(=O)[C@@H](NC(=O)[C@@H](NC(=O)[C@H](CC(=O)O)NC(=O)[C@@H](NC(=O)[C@@H](NC(=O)[C@H](CCCNC(=N)N)NC(=O)[C@H](CCC(=O)O)NC(=O)CNC(=O)[C@H](C)NC(=O)CCCCCCCCCNC(=O)[C@H](CCCNC(=N)N)NC(=O)[C@H](CCCCN)NC(=O)[C@H](Cc1ccccc1)NC(=O)[C@H](CC(N)=O)NC(=O)[C@H](Cc1cnc[nH]1)NC(=O)[C@@H](NC(=O)[C@H](Cc1ccccc1)NC(=O)[C@@H](NC(=O)[C@H](C)NC(=O)[C@H](CCSC)NC(=O)[C@H](CCC(N)=O)NC(=O)[C@@H](NC(=O)[C@H](C)NC(=O)[C@@H](NC(=O)[C@H](CCCCN)NC(=O)[C@H](CC(C)C)NC(=O)[C@@H](N)Cc1cnc[nH]1)[C@@H](C)O)C(C)C)C(C)C)[C@@H](C)CC)[C@@H](C)CC)C(C)C)[C@@H](C)CC)[C@@H](C)CC)[C@@H](C)O)C(=O)N[C@@H](CCC(N)=O)C(N)=O (H-HLKTAVQMAVFIHNFKR[NH(CH2)9CO]AGERIVDIIATDIQ-NH2)
inhibition [1]: Active | IC50 [2]: 760 nM

CC[C@H](C)[C@H](NC(=O)[C@H](CC(=O)O)NC(=O)[C@@H](NC(=O)[C@H](C)NC(=O)[C@@H](NC(=O)[C@@H](NC(=O)[C@H](CC(=O)O)NC(=O)[C@@H](NC(=O)[C@@H](NC(=O)[C@H](CCCNC(=N)N)NC(=O)[C@H](CCC(=O)O)NC(=O)CNC(=O)[C@H](C)NC(=O)CN1CCN(C(=O)[C@H](CCCNC(=N)N)NC(=O)[C@H](CCCCN)NC(=O)[C@H](Cc2ccccc2)NC(=O)[C@H](CC(N)=O)NC(=O)[C@H](Cc2cnc[nH]2)NC(=O)[C@@H](NC(=O)[C@H](Cc2ccccc2)NC(=O)[C@@H](NC(=O)[C@H](C)NC(=O)[C@H](CCSC)NC(=O)[C@H](CCC(N)=O)NC(=O)[C@@H](NC(=O)[C@H](C)NC(=O)[C@@H](NC(=O)[C@H](CCCCN)NC(=O)[C@H](CC(C)C)NC(=O)[C@@H](N)Cc2cnc[nH]2)[C@@H](C)O)C(C)C)C(C)C)[C@@H](C)CC)CC1)[C@@H](C)CC)C(C)C)[C@@H](C)CC)[C@@H](C)CC)[C@@H](C)O)C(=O)N[C@@H](CCC(N)=O)C(N)=O (H-HLKTAVQMAVFIHNFKR[X1]AGERIVDIIATDIQ-NH2)
inhibition [1]: Active | IC50 [2]: 460 nM

H-AGERIVDIIATDIQ-NH2
IC50 [2]: 3000 nM

H-HLKTAVQMAVFIHNFKR-OH
IC50 [2]: 2000 nM
